Source: patent US20060051764A1, “Thymidylate synthase polymorphisms for use in screening for cancer susceptibility” (priority 2002, published 2006)

Legend:
[1] = system: disseminated colorectal cancer; test: Clinical outcome (response and survival) to protracted infusion of 5-FU in colorectal cancer patients by TS genotype; type: in vivo, human
Experimental: To explore the role of SNP as a predictive marker, 40 patients were evaluated with disseminated colorectal cancer (SWOG 9420 and 3C-92-2) for response and survival to protracted infusion of 5-fluorouracil. The distribution of the TS tandem repeat polymorphism was as follows: 2R/2R 20% (8/40), 2R/3R 50% (20/40), and 3R/3R 30% (12/40). […] This relationship also lacked statistical significant (P=0.14, Logrank Test).
Patient samples were re-classified into two groups based on predicted high and low TS expression using the tandem repeat polymorphism and the SNP. Since it was hypothesized that the SNP, or variant 3R (3RV) allele, would decrease the TS gene expression of a 3R allele, 21 patients were grouped with genotypes of 2R/2R, 2R/3RV and 3RV/3RV into the predicted “low TS expression” group (Group A) and 19 patients with 2R/3R, 3R/3RV, and 3R/3R into the predicted “high TS expression” group (Group B). These groups were then re-evaluated for an association between TS genotypes and clinical outcome to 5-FU chemotherapy.
The presence of the new SNP within the TS gene was confirmed in Non-Hispanic Whites. Individuals (disease-free controls) were initially recruited for a cancer case-control study in California as described in Castelao et al., 2001. Patients included in this study has metastatic colorectal cancer and were enrolled in the following protocols: Southwest Oncology Group protocol 9420 (19 patients, 5-FU doses used: CI (continuous infusion) 300 mg/m^2/d v. CI 2600 mg/m^2/d q weekly) opened for accrual in May 1995 and closed in May 1999; and the University of Southern California protocol: 3C-92-2 (21 patients, 5-FU doses used: CI 200 mg/m^2/d q weekly for three weeks followed by one week rest) opened for accrual in September 1992 and closed in June 1995. All patients signed an informed consent to participate in the clinical trial and for evaluation of the TS polymorphism. Genotyping for the TS polymorphism was performed on paraffin-embedded tissues in all patients.
All patients had bi-dimensionally measurable disease at the time of protocol entry. Responders to therapy were classified as those patients whose tumor burden (the sum, overall measurable lesions of the products of the largest diameter and its perpendicular diameter) decreased by 50% or more for at least six weeks. Progressive disease was defined as 25% or more increase in tumor burden (compared to the smallest measurement) or the appearance of new lesions.
Survival was computed as the number of months from the initiation of chemotherapy with 5-FU to death of any cause. Patients who were alive at the last follow-up evaluation were censored at that time.
Contingency tables and Fisher's exact test (Metha et al., 1983) were used to summarize the association of response (grouped as response, stable disease, and progressive disease) to 5-FU with the TS genotypes. Kaplan-Meier plots (Kaplan et al., 1958) and the log-rank test (Miller et al., 1981) were used to compare survival of patients according to TS genotypes. Median survival was calculated based on the Kaplan-Meier estimator. All p-values are two-sided.

[2] = target: T1, USF-1 phosphorylated by cdc2/p34 (Homo sapiens, UniProt P22415 P22415:1-310); test: EMSA; consensus probe; sequence taken from the listed USF-1 specific oligonucleotide; conditions: tags: N-terminal 6xHis (pProEX-HTb, E. coli), in vitro phosphorylated with cdc2/p34; chain copies: 2; label: 32P when used as probe
Experimental: When both forms of USF-1 were used in an EMSA assay utilizing the perfect USF-1 consensus element as a probe, only the phosphorylated form was able to bind (FIG. 3B, lanes 2 and 3). Gel mobility shift analyses were performed using recombinant USF-1 with a ³²P-labeled USF-1 specific consensus probe containing an intact E-box site. Lane 1 contained only free probe. Lane 2 was 30 ng of recombinant phospho-USF-1 incubated with probe in the absence of unlabeled competitor oligonucleotides. Lane 3 contained 30 ng of recombinant unphosphorylated USF-1 incubated with probe in the absence of unlabeled specific competitor oligonucleotides. In lanes 4-5, phospho-USF-1 was pre-incubated with 500 molar excess of unlabeled USF-1 specific competitor oligonucleotide and 500 molar excess of nonspecific dIdC competitor, respectively.
Synthetic double-stranded oligonucleotides (Integrated DNA Technologies) corresponding to a wild type (R) or variant (RV) 28 bp tandem repeat sequence from the TS 5′ regulatory region were labeled with [γ-³²P] ATP (Amersham Pharmacia Biotech) according to the Gel-Shift Assay Kit protocol (Promega). For each gel shift reaction, 10,000 cpm of labeled probe 30 ng of recombinant USF-1 for 20 min at room temperature in a 20 μl reaction mixture containing 10 mM Tris-HCl, pH 7.5, 50 mM NaCl, 0.5 mM dithiothreitol, 0.5 mM EDTA, 4% glycerol, 1 mM MgCl₂ and 0.1 μg of poly(dIdC) DNA. […]

[3] = target: T1, USF-1 phosphorylated by cdc2/p34; test: EMSA; 1 mM MgCl2, 50 mM NaCl, room temperature; abolished by USF-1 specific competitor; conditions: tags: N-terminal 6xHis (pProEX-HTb, E. coli), in vitro phosphorylated with cdc2/p34; chain copies: 2; label: 32P
Experimental: To determine the ability of the phosphorylated form of USF-1 to bind to its consensus element within the TS repeat, an EMSA assay was carried out using the ³²P-labeled 28 bp sequence as a probe corresponding to one tandem repeat containing an intact E-box site. Lane 1 was free probe. In lane 2, 30 ng of recombinant USF-1 was incubated with probe in the absence of unlabeled competitor oligonucleotides. In lane 3, 30 ng of phospho-USF-1 was incubated with probe in the absence of unlabeled competitor oligonucleotides. In lanes 4-6, phospho-USF-1 was pre-incubated with 500 molar excess of: unlabeled probe, USF-1 specific competitor, and non-specific poly (dIdC) competitor oligonucleotides, respectively. Incubation of the phosphorylated form of USF-1 with the probe caused a shift on the gel that was abolished by the addition of unlabeled specific competitor oligonucleotides (FIG. 3C, lanes 3 and 5).
Synthetic double-stranded oligonucleotides (Integrated DNA Technologies) corresponding to a wild type (R) or variant (RV) 28 bp tandem repeat sequence from the TS 5′ regulatory region were labeled with [γ-³²P] ATP (Amersham Pharmacia Biotech) according to the Gel-Shift Assay Kit protocol (Promega). […]

[4] = target: T1, USF-1 phosphorylated by cdc2/p34; test: EMSA; 1 mM MgCl2, 50 mM NaCl, room temperature; conditions: tags: N-terminal 6xHis (pProEX-HTb, E. coli), in vitro phosphorylated with cdc2/p34; chain copies: 2; label: 32P
Experimental: Since the potential G→C SNP at the 12th nucleotide of the 28 bp repeats lies within the USF binding site, the ability of the recombinant USF-1 protein to bind the variant consensus element by EMSA was tested. […] Gel mobility shift analyses were performed using recombinant USF-1 with a ³²P-labeled 28 bp probe corresponding to one tandem repeat containing a G→C base change at the 12th nucleotide. Lane 1 was free probe. In lane 2, 30 ng of recombinant USF-1 was incubated with probe. In lane 3, 30 ng of phospho-USF-1 was incubated with probe.
Synthetic double-stranded oligonucleotides (Integrated DNA Technologies) corresponding to a wild type (R) or variant (RV) 28 bp tandem repeat sequence from the TS 5′ regulatory region were labeled with [γ-³²P] ATP (Amersham Pharmacia Biotech) according to the Gel-Shift Assay Kit protocol (Promega). For each gel shift reaction, 10,000 cpm of labeled probe 30 ng of recombinant USF-1 for 20 min at room temperature in a 20 μl reaction mixture containing 10 mM Tris-HCl, pH 7.5, 50 mM NaCl, 0.5 mM dithiothreitol, 0.5 mM EDTA, 4% glycerol, 1 mM MgCl₂ and 0.1 μg of poly(dIdC) DNA. Where indicated, unlabeled competitor oligonucleotides were incubated for 10 min at room temperature with nuclear extracts prior to addition of labeled probe.
Reactions using recombinant USF-1 contained ˜30 ng of either USF-1 or phospho USF-1. […]

[5] = patients with TS genotype 2R/2R (n = 8)
[6] = patients with TS genotype 2R/3R (n = 20)
[7] = patients with TS genotype 3R/3R (n = 12)

T1 sequence (P22415 whole entry, one chain of several): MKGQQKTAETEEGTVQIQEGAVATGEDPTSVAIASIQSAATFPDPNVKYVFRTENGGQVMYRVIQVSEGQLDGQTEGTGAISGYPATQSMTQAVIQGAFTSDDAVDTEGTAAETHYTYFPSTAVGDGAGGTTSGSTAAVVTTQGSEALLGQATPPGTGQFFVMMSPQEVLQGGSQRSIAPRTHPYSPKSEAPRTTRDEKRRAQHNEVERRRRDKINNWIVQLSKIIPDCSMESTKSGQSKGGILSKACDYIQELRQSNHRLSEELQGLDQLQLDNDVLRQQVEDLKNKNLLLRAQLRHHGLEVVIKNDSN

O=c1[nH]cc(F)c(=O)[nH]1 [5-FU, 5-fluorouracil]
median survival ([1]; 3R/3R carriers): 8.4 months | survival ([1]; Group A, predicted low TS expression (2R/2R, 2R/3RV, 3RV/3RV)): 10.1 months | Clinical Response: Stable Disease ([1]; Group A, predicted low TS expression: 2R/2R, 2R/3RV, 3RV/3RV (n = 21)): 4 (19%) | survival ([1]; Group B, predicted high TS expression (2R/3R, 3R/3RV, 3R/3R)): 7.4 months | Clinical Response: Stable Disease ([1]; Group B, predicted high TS expression: 2R/3R, 3R/3R, 3R/3RV (n = 19)): 7 (37%) | median survival ([1]; heterozygous group (2R/3R)): 7.4 months | median survival ([1]; patients with TS genotype 2R/2R): 16.2 months | Clinical Response: Progression [1, 5]: 3 (37%) | Clinical Response: Stable Disease [1, 5]: 1 (13%) | Clinical Response: Progression [1, 6]: 12 (60%) | Clinical Response: Stable Disease [1, 6]: 5 (25%) | disease response (patients responding/total) ([1]; patients with TS genotype 3R/3R): 0/12 | Clinical Response: Progression [1, 7]: 7 (58%) | Clinical Response: Response [1, 7]: 0 (0%) | Clinical Response: Stable Disease [1, 7]: 5 (42%)

B1: USF-1 consensus oligonucleotide (dsDNA)
DNA 1: CACCCGGTCACGTGGCCTACACC
DNA 2: GGTGTAGGCCACGTGACCGGGTG
binding result [2]: binds

B2: TS wild-type tandem repeat (R) (dsDNA)
DNA 1: CCGCGCCACTTGGCCTGCCTCCGTCCCG
DNA 2: CGGGACGGAGGCAGGCCAAGTGGCGCGG
binding result [3]: binds

B3: TS variant tandem repeat (RV) (dsDNA)
DNA 1: CCGCGCCACTTCGCCTGCCTCCGTCCCG
DNA 2: CGGGACGGAGGCAGGCGAAGTGGCGCGG
binding result [4]: no binding
